Data published in US20130153815A1, “POLYMER COMPRISING A DYE, NANOPARTICLE COMPRISING THE POLYMER, AND METHODS OF PREPARING THE SAME” (Agency for Science, Technology and Research, priority 2011, published 2013).

Key:
[1] = UV absorption in methanol; assay type: physicochemical; conditions: methanol solution, 0.1 mM, 25° C.
Description: (§1) The absorbance bands of these spectra still remain at 820 nm after chemical modification and hybridization with polymers. The colloidal stability and aggregation were tested by using UV absorbance. Dye-Pol 1 and Dye-Pol 2 were mixed with phosphate buffered saline (PBS) buffer. The absorbance bands remain the same after 3 days (FIG. 7). Similar phenomenon happened to MNP 1 and MNP 2 (FIG. 8). […] FIG. 9 and FIG. 10 show the emission spectra in the near-infrared region (800-1500 nm), excited at 785 nm. The emission spectrum of IR820dye-NH2 is 1002 nm, slightly blue-shifted from 1076 nm (IR-820). Dye-Pol 1 and Dye-Pol 2 show the emission highest peak at 956 nm while the emission of MNP 1 and MNP 2 are 864 and 866 nm, respectively. Dye-Pol 1 and Dye-Pol 2 absorb at 820 nm and emit at 956 nm. They display a large Stokes shift (136 nm).

[2] = NIR photoluminescence emission spectra excited with a 785 nm laser diode; assay type: physicochemical; conditions: near-infrared region (800-1500 nm), excited at 785 nm
Description: as §1

CC1(C)C(=CC=C2CCCC(C=CC3=[N+](CCCCS(=O)(=O)[O-])c4ccc5ccccc5c4C3(C)C)=C2Cl)N(CCCCS(=O)(=O)[O-])c2ccc3ccccc3c21.[Na+] [IR-820]
absorbance band [1]: 820 nm | emission highest peak [2]: 1076 nm
